Laboratory results reported in article PMC4770093, “The role of kinetic context in apparent biased agonism at GPCRs” (Nature Communications, 2016).
Where “and” joins values, the source holds several entries; their conditions need not be identical. Identical values can stand only once.

Assays:
[1] = target: T1, D2LR (Homo sapiens, UniProt P14416); test: Inhibition of forskolin-induced cAMP production (BRET CAMYEL biosensor); settings: for Emax cAMP: relative to the maximal response of ropinirole; for Inhibition of cAMP production measured using a CAMYEL BRET biosensor, Net BRET: single experiments n = 1, 2, 3
T1 sequence (P14416 whole entry): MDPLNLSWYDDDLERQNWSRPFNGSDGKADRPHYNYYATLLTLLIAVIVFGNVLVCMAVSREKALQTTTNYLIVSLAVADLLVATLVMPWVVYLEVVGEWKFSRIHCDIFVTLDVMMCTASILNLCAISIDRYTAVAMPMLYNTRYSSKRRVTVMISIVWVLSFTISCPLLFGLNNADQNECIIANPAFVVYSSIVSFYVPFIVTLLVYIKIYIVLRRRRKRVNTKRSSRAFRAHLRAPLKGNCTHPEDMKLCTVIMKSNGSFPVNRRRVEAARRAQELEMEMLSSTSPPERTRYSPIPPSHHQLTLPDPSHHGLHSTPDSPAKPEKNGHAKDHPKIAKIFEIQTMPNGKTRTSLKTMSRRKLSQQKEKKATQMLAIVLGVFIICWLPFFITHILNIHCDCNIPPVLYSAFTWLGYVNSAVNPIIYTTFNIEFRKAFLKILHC
Experimental: Flp-In-CHO cells stably expressing the D2LR were seeded at a density of 2,000,000 cells per 10-cm dish and were transfected the following day using polyethylenimine as the transfection reagent. The cells were transfected with 3 μg CAMYEL, to allow the detection of cAMP levels within the cells. Twenty-four hours after transfection, the cells were plated into 96-well CulturPlates (PerkinElmer) and grown overnight. The cells were equilibrated in Hank's balanced salt solution at 37 °C (or 25 °C when indicated) before starting the experiment. The cells were co-stimulated with the agonists and 10 μM forskolin for the indicated timeframes when the BRET readings were captured. Coelenterazine (Promega) was added at a final concentration of 5 μM at least 3 min before measurement. […] Net BRET was determined by subtraction of the vehicle control co-added with 10 μM forskolin.

[2] = target: SNAP-tagged human dopamine D2L (Homo sapiens, UniProt P14416); test: Tag-lite PPHT-red competition kinetic binding (HTRF); settings: PPHT-red tracer, Tag-lite
SNAP-tagged human dopamine D2L, sequence (P14416 whole entry): as above
Experimental: To terbium label the SNAP-CHO-D2L cells, cell culture medium was removed from the T175 cm^2 flasks containing confluent adherent SNAP-CHO-D2L cells. Twelve millilitres of Tag-lite labelling medium containing 100 nM of SNAP-Lumi4-Tb was added to the flask and incubated for 1 h at 37 °C under 5% CO2. Cells were then washed 2 × in 15 ml PBS (GIBCO, Invitrogen, Paisley, UK) to remove the excess of SNAP-Lumi4-Tb and detached using 5 ml of enzyme-free Hank's-based cell dissociation buffer (GIBCO, Invitrogen, Paisley, UK) and collected in a vial containing 5 ml of DMEM/Nutrient F-12 Ham, 2 mM glutamine supplemented 10% FCS. Cells were pelleted by centrifugation (5 min at 1,500 r.p.m.) and the pellets were frozen to −80 °C before preparation of membranes.
All subsequent steps described were conducted at 4 °C, to avoid receptor degradation. Twenty millilitres of wash buffer (10 mM HEPES and 10 mM EDTA pH 7.4) was added to the pellet of terbium-labelled cells (equivalent to 1 × t175 cm^2). […] The supernatant was discarded and the pellet was homogenized and centrifuged as described above in wash buffer. The final pellet was suspended in ice-cold 10 mM HEPES and 0.1 mM EDTA pH 7.4, at a concentration of 5–10 mg m^−1. Protein concentration was determined by the bicinchoninic acid assay using BSA as a standard and aliquots maintained at −80 °C until required. Before their use, the frozen membranes were thawed and the membranes suspended in the assay buffer at a membrane concentration of 0.1 mg m^−1.
GppNHp was included to remove the G protein-coupled population of receptors that can result in two binding sites in membrane preparations, because the Motulsky–Mahan model is only appropriate for ligands competing at a single site. […] Both fluorescent ligands and unlabelled compounds were diluted in the binding assay buffer.
Kinetics acquisitions at intervals of 20 s were recorded using the standard settings of the reader for HTRF measurements. […] Specific binding was determined by subtracting the nonspecific HTRF ratio from the total HTRF ratio.
To accurately determine association rate (kon) and dissociation rate (koff) values, the observed rate of association (kob) was calculated using at least four different concentrations of PPHT-red. The appropriate concentration of PPHT-red was incubated in a 384-well Optiplate with human SNAP-D2LR-CHO cell membranes (2 μg per well) in assay binding buffer at 37 °C (final assay volume, 40 μl). The degree of PPHT-red bound to the receptor was assessed at multiple time points by HTRF detection, to allow construction of association kinetic curves. The resulting data were globally fitted to the association kinetic model (equation (8)) to derive a single best-fit estimate for kon and koff as described under ‘Data analysis'.
On the same 384-well Optiplate plate, the kinetic parameters of unlabelled ligand were assessed using a competition kinetic binding assay. This approach involves the simultaneous addition of both fluorescent ligand and competitor to receptor preparation so that at t=0 all receptors are unoccupied. […] The degree of PPHT-red bound to the receptor was assessed at multiple time points by HTRF detection. Nonspecific binding was determined as the amount of HTRF signal detected in the presence of spiperone (1 μM) and was subtracted from each time point. Each time point was conducted on the same 384-well plate incubated at 37 °C with shaking (100 r.p.m.) after every cycle.
Data were globally fitted using equation (7), to simultaneously calculate kon and koff.

[3] = target: T1, D2LR; test: Gαi1 G protein activation (BRET); assay type: cell-based; set-up: expressed in transfected cells; settings: 5 minute timepoint
Experimental: G protein activation. Flp-In-CHO cells stably expressing the D2LR were seeded at a density of 2,000,000 cells per 10-cm dish and were transfected the following day using polyethylenimine as the transfection reagent. […] Twenty-four hours after transfection, the cells were plated into 96-well CulturPlates (PerkinElmer) and grown overnight. The cells were equilibrated in Hank's balanced salt solution at 37 °C before starting the experiment. The cells were stimulated with the agonists for the indicated timeframes when the BRET readings were captured. Coelenterazine (Promega) was added at a final concentration of 5 μM at least 3 min before measurement. […] Net BRET was determined by subtraction of the vehicle control from the agonist-induced response.

[4] = system: D2R; test: Simulation of receptor occupancy over time from kon and koff; settings: simulation with a KD concentration of each agonist
Outline: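 Receptor occupancy over time was simulated from kon and koff for each agonist at a concentration equal to its KD. The kinetic constants came from a Tag-lite competition kinetic binding assay on SNAP-tagged D2R with fluorescent agonist PPHT as tracer, given as mean±s.e.m. of three experiments.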

`CN1CCN(c2cccc3[nH]c(=O)oc23)CC1` [Pardoprunox, pardoprunox] was tested, and the “pEC50 cAMP” value ([1]; 2 min) was 8.98, the “Emax cAMP” value ([1]; 2 min) was 87 ± 1.9 and the “pEC50 cAMP” value ([1]; 5 min) was 8.69. The “Emax cAMP” value ([1]; 5 min) was 87 ± 1.5, the “Log(τ/KA) cAMP” value ([1]; 5 minute timepoint, Flp-In-CHO-D2LR) was 8.64 ± 0.05 and the “ΔLog(τ/KA) cAMP” value ([1]; 5 minute timepoint, dopamine as reference agonist) was 0.58 ± 0.07. For the same compound, the “pEC50 cAMP” value ([1]; 10 min) was 8.39, the “Emax cAMP” value ([1]; 10 min) was 86 ± 1.4 and the “pEC50 cAMP” value ([1]; 15 min) was 8.33. For the same compound, the “Emax cAMP” value ([1]; 15 min) was 87 ± 1.6, the “pEC50 cAMP” value ([1]; 30 min) was 8.46 and the “Emax cAMP” value ([1]; 30 min) was 85 ± 2.1. For the same compound, the “pEC50 cAMP” value ([1]; 45 min) was 8.03, the “Emax cAMP” value ([1]; 45 min) was 82 ± 1.4 and the “pEC50 cAMP” value ([1]; 60 min) was 7.82. The “Emax cAMP” value ([1]; 60 min) was 74 ± 1.8, the “pEC50 cAMP” value ([1]; 75 min) was 8.04 and the “Emax cAMP” value ([1]; 75 min) was 84 ± 2.2. For the same compound, the “pEC50 cAMP” value ([1]; 90 min) was 7.83, the “Emax cAMP” value ([1]; 90 min) was 81 ± 1.6 and the “Inhibition of cAMP production measured using a CAMYEL BRET biosensor, Net BRET” value (“Inhibition of cAMP production measured” below) ([1]; time 2.21667 mins) was 0.09312 and 0.1119 and 0.09462. The “Inhibition of cAMP production measured” value ([1]; time 2.58333 mins) was 0.09848 and 0.1094 and 0.0984, the “Inhibition of cAMP production measured” value ([1]; time 2.95 mins) was 0.1044 and 0.1291 and 0.0949 and the “Inhibition of cAMP production measured” value ([1]; time 3.31667 mins) was 0.1072 and 0.1248 and 0.1125. For the same compound, the “Inhibition of cAMP production measured” value ([1]; time 3.68333 mins) was 0.1144 and 0.1213 and 0.1135, the “Inhibition of cAMP production measured” value ([1]; time 4.05 mins) was 0.1221 and 0.1382 and 0.1172 and the “Inhibition of cAMP production measured” value ([1]; time 4.41667 mins) was 0.1176 and 0.1369 and 0.114. For the same compound, the “Inhibition of cAMP production measured” value ([1]; time 4.78333 mins) was 0.1323 and 0.136 and 0.1109, the “Inhibition of cAMP production measured” value ([1]; time 5.15 mins) was 0.1365 and 0.1389 and 0.1171 and the “Inhibition of cAMP production measured” value ([1]; time 5.51667 mins) was 0.1301 and 0.1395 and 0.116. For the same compound, the “Inhibition of cAMP production measured” value ([1]; time 5.88333 mins) was 0.1412 and 0.1297 and 0.1213, the “Inhibition of cAMP production measured” value ([1]; time 6.25 mins) was 0.1339 and 0.1324 and 0.1196 and the “Inhibition of cAMP production measured” value ([1]; time 6.61667 mins) was 0.1245 and 0.1374 and 0.113. For the same compound, the “Inhibition of cAMP production measured” value ([1]; time 6.98333 mins) was 0.1378 and 0.1302 and 0.1147, the “Inhibition of cAMP production measured” value ([1]; time 7.35 mins) was 0.1418 and 0.1291 and 0.1123 and the “Inhibition of cAMP production measured” value ([1]; time 7.71667 mins) was 0.1394 and 0.1366 and 0.1233. For the same compound, the “Inhibition of cAMP production measured” value ([1]; time 8.08333 mins) was 0.1443 and 0.1378 and 0.1166, the “Inhibition of cAMP production measured” value ([1]; time 8.45 mins) was 0.1408 and 0.1371 and 0.1127 and the “Inhibition of cAMP production measured” value ([1]; time 8.81667 mins) was 0.144 and 0.1435 and 0.1231. The “Inhibition of cAMP production measured” value ([1]; time 9.18333 mins) was 0.1482 and 0.1437 and 0.1124, the “Inhibition of cAMP production measured” value ([1]; time 9.55 mins) was 0.1472 and 0.1422 and 0.1225 and the “Inhibition of cAMP production measured” value ([1]; time 9.91667 mins) was 0.1503 and 0.1391 and 0.1248. The “Inhibition of cAMP production measured” value ([1]; time 10.2833 mins) was 0.1418 and 0.1435 and 0.1207, the “Inhibition of cAMP production measured” value ([1]; time 10.65 mins) was 0.1434 and 0.1464 and 0.1244 and the “Inhibition of cAMP production measured” value ([1]; time 11.0167 mins) was 0.1459 and 0.1412 and 0.1263. For the same compound, the “Inhibition of cAMP production measured” value ([1]; time 11.3833 mins) was 0.1508 and 0.1374 and 0.1263, the “Inhibition of cAMP production measured” value ([1]; time 11.75 mins) was 0.1476 and 0.1469 and 0.1207 and the “Inhibition of cAMP production measured” value ([1]; time 12.1167 mins) was 0.1454 and 0.1457 and 0.1265. For the same compound, the “Inhibition of cAMP production measured” value ([1]; time 12.4833 mins) was 0.14 and 0.1421 and 0.1315, the “Inhibition of cAMP production measured” value ([1]; time 12.85 mins) was 0.1413 and 0.1515 and 0.1219 and the “Inhibition of cAMP production measured” value ([1]; time 13.2167 mins) was 0.1418 and 0.1452 and 0.1337. For the same compound, the “Inhibition of cAMP production measured” value ([1]; time 13.5833 mins) was 0.1514 and 0.1571 and 0.1315, the “Inhibition of cAMP production measured” value ([1]; time 13.95 mins) was 0.1501 and 0.1517 and 0.1357 and the “Inhibition of cAMP production measured” value ([1]; time 14.3167 mins) was 0.1522. For the same compound, the “pKd (affinity determined from kinetic parameters)” value [2] was 7.75, the koff ([2]; 100 μM GppNHp, 37 °C) was 0.038 ± 0.00933 s⁻¹ and the “Log(τ/KA) Gαi1 activation” value ([3]; Flp-In-CHO-D2LR) was 8.10 ± 0.13. For the same compound, the “ΔLog(τ/KA) Gαi1 activation” value ([3]; dopamine as reference agonist) was 0.93 ± 0.16 and the “time to maximal receptor occupancy” value [4] was ≤ 1 min.
